Converted amounts (≈) assume the structure as drawn.

What all share (type): functional
For assay [1], the system named is Mycobacterium tuberculosis. Kind of assay: Antimicrobial activity against Mycobacterium tuberculosis harboring 83W to Stop mutation in thymidylate synthase A by agar dilution method.
For assay [2], the system named is Mycobacterium tuberculosis. Description: Antimicrobial activity against Mycobacterium tuberculosis harboring 11Q to Stop mutation in thymidylate synthase A by agar dilution method.
The test system of assay [3] is Mycobacterium tuberculosis. Description: Antimicrobial activity against Mycobacterium tuberculosis harboring 118L to Stop mutation in thymidylate synthase A by agar dilution method.
Assay [4] deals with Mycobacterium tuberculosis. Kind of assay: Antimicrobial activity against Mycobacterium tuberculosis harboring 153Y to Stop mutation in thymidylate synthase A by agar dilution method.
Assay [5] concerns Mycobacterium tuberculosis. Kind of assay: Antimicrobial activity against Mycobacterium tuberculosis harboring 164Y to Stop mutation in thymidylate synthase A by agar dilution method.
Assay [6] relates to Mycobacterium tuberculosis. Description: Antimicrobial activity against Mycobacterium tuberculosis harboring 251Y to Stop mutation in thymidylate synthase A by agar dilution method.
The test system of assay [7] is Mycobacterium tuberculosis. Kind of assay: Antimicrobial activity against Mycobacterium tuberculosis harboring 264Stop to R mutation in thymidylate synthase A by agar dilution method.
Assay [8] concerns Mycobacterium tuberculosis. Description: Antimicrobial activity against Mycobacterium tuberculosis harboring 127R to L mutation in thymidylate synthase A by agar dilution method.
Assay [9] concerns Mycobacterium tuberculosis. Description: Antimicrobial activity against Mycobacterium tuberculosis harboring 143L to P mutation in thymidylate synthase A by agar dilution method.
Assay [10] deals with Mycobacterium tuberculosis. Kind of assay: Antimicrobial activity against Mycobacterium tuberculosis harboring 146C to R mutation in thymidylate synthase A by agar dilution method.
Assay [11] concerns Mycobacterium tuberculosis. Kind of assay: Antimicrobial activity against Mycobacterium tuberculosis harboring 172L to P mutation in thymidylate synthase A by agar dilution method.
For assay [12], the system named is Mycobacterium tuberculosis. Description: Antimicrobial activity against Mycobacterium tuberculosis harboring 182A to P mutation in thymidylate synthase A by agar dilution method.
The test system of assay [13] is Mycobacterium tuberculosis. Description: Antimicrobial activity against Mycobacterium tuberculosis harboring 259A to P mutation in thymidylate synthase A by agar dilution method.
Assay [14] relates to Mycobacterium tuberculosis. Kind of assay: Antimicrobial activity against Mycobacterium tuberculosis harboring 261V to G mutation in thymidylate synthase A by agar dilution method.
Assay [15] has as its system Mycobacterium tuberculosis. Description: Antimicrobial activity against Mycobacterium tuberculosis harboring 15G to R mutation in thymidylate synthase A by agar dilution method.
Assay [16] concerns Mycobacterium tuberculosis. Description: Antimicrobial activity against Mycobacterium tuberculosis harboring 183L to V mutation in thymidylate synthase A by agar dilution method.
Assay [17] has as its system Mycobacterium tuberculosis. Kind of assay: Antimicrobial activity against Mycobacterium tuberculosis harboring 191Q to R mutation in thymidylate synthase A by agar dilution method.
Assay [18] has as its system Mycobacterium tuberculosis. Kind of assay: Antimicrobial activity against Mycobacterium tuberculosis harboring 202T to A mutation in thymidylate synthase A by agar dilution method.

As for `Nc1ccc(C(=O)O)c(O)c1` [AMINOSALICYLIC ACID], the MIC in [1], in assay [2], in assay [3], in assay [4], in [5] and in assay [6] was over 128 µg/mL in each case. Further, the MIC in [7], in assay [8], in assay [9], in assay [10], in assay [11] and in assay [12] was over 128 µg/mL throughout. For the same compound, the MIC in assay [13] is 64 µg/mL (≈ 418 µM); in [14], over 128 µg/mL; in assay [15], over 8 µg/mL; in assay [16] it was under 64 µg/mL; in assay [17], under 64 µg/mL; in assay [18], under 128 µg/mL.

For the origin of these results see ChEMBL document CHEMBL1649181 (2009).
